Test results published in paper PMC10485906, “Development of a Dihydroquinoline–Pyrazoline GluN2C/2D-Selective Negative Allosteric Modulator of the N-Methyl-D-aspartate Receptor” (ACS Chemical Neuroscience, 2023).
Values joined by “and” are separate entries in the source; they are usually repeats but may differ in a detail not shown here. Identical values can stand only once. Like-named read-outs stand apart in the source and are kept apart here.

Assay: Mouse plasma and brain pharmacokinetics, IP administration
Type: in vivo
Details: for AUC: read-out: AUC0.25–4 h brain; for AUC(0-t): read-out: AUC0.25–4 h plasma (AUCLAST); for concentration at 0.25 h / concentration at 0.5 h / concentration at 1 h / concentration at 2 h / concentration at 4 h: intraperitoneal
Experimental: IACUC-approved protocols and animal welfare regulations outlined in the “Guide for the Care and Use of Laboratory Animals” were both followed during the pharmacokinetic evaluation of all compounds. In vivo analysis was performed by Pharmaron (IP administration, Irvine, CA) and Sai Life (IV administration, Hinjewadi Pune, Pune, India).
A group (n = 15) of fed, male C57BL/6 mice ∼6 to 8 weeks of age was injected IP with 10 mg/kg (1 mg/mL) of drug using 50% PEG400 in water as a vehicle. Samples were collected from the blood and brain at 0.25, 0.5, 1, 2, and 4 h after administration (3 mice per time point) following CO2 anesthesia. Collection from the brain was performed as follows: the mouse is terminally anaesthetized via rising concentration of CO2 and as much blood is removed as possible via cardiac puncture. The cardiac puncture is done by opening the chest cavity to expose the heart, cutting an incision in the right auricle using surgical scissors, and finally injecting a saline solution (∼10 mL) slowly into the left ventricle via a syringe. The mouse is placed head down at a 45° angle to facilitate blood removal. After perfusion, the skull is opened and the brain is removed. The whole brain is washed with saline, dried with surgical gauze, placed in tared tubes, and stored at −75 °C before analysis. For plasma sample preparation at the 0.25–2 h time points, 15 μL of blank solution, 30 μL of plasma sample, and 150 μL were added sequentially for protein precipitation. After centrifugation, 20 μL of the supernatant and 80 μL of collection buffer were combined, and thus, the final compound concentration in plasma (ng/mL) was corrected by multiplying by 5. For plasma sample preparation at the 4 h time point, 15 μL of blank solution, 30 μL of plasma sample, and 150 μL of acetonitrile were added sequentially for protein precipitation. For all brain sample preparation, 15 μL of blank solution, 30 μL of brain samples, and 150 μL of acetonitrile were added sequentially for protein precipitation. Brain samples were prepared by adding brain (g) to deionized water (mL) in a 1:4 ratio for homogenization. The mixtures were then vortexed for 30 s and subsequently centrifuged (∼4000 rpm) for 15 min. The supernatant was diluted 3-fold with water, and a 2 μL aliquot of the diluted supernatant was injected into a Shimadzu LC-30A LC-MS/MS system with a Phenomenex 2.6 μ PFP 100A column (30 mm × 2.1 mm) using verapamil as an internal standard. A gradient from 95% water (0.1% formic acid) to 95% ACN (0.1% formic acid) was run over 2 min at a flow rate of 0.6 mL/min. Brain and blood samples were collected at 15, 30, 60, 120, and 240 min from three C57Bl/6 mice at each time point. See Tables S6–S10 for 2i concentrations.

[1] = male, C57BL/6, mouse, brain, 10 mg/kg IP
[2] = male, C57BL/6, mouse, brain, 10 mg/kg IP, read-out: Tmax brain
[3] = male, C57BL/6, mouse, plasma, 10 mg/kg IP
[4] = male, C57BL/6, mouse, plasma, 10 mg/kg IP, read-out: Tmax plasma
[5] = male, C57BL/6, mouse, plasma, 10 mg/kg IP, read-out: t1/2 plasma (converted)
[6] = male, mouse, plasma, 10 mg/kg IP, C57BL/6 mice

## NC(=O)CC(F)(F)C(=O)N1N=C(c2c(-c3ccc(Cl)cc3)c3ccccc3[nH]c2=O)CC1c1ccc(Cl)cc1 (centres unmarked) [2k]
10 mg/kg IP, C57BL/6 mice
  Cmax brain: 13 ng/mL
[1]
  AUC: 0.041 µg·h/mL
[2]
  Tmax: 4 h
[3]
  AUC(0-t): 2.27 µg·h/mL
[4]
  Tmax: 0.5 h
[5]
  half-life: 4.9 h
[6]
  Cmax: 0.815 µg/mL

## O=C(O)CC(F)(F)C(=O)N1N=C(c2c(-c3ccc(Cl)cc3)c3ccccc3[nH]c2=O)CC1c1ccc(Cl)cc1 (centres unmarked) [2i]
10 mg/kg IP
  AUC % Extrapolation brain: 58%
  AUC % Extrapolation plasma: 15%
  AUCINF brain: 151 ng·h/g
  AUCLAST brain: 64 ng·h/g
  Cmax brain: 0.040 µM and 23 ng/g
10 mg/kg IP, C57BL/6 mice
  Cmax brain: 23 ng/mL
10 mg/kg IP, 0.25 h
  Brain/plasma Ratio, individual (Group 1-3): 0.012 and 0.019
  brain calculated concentration, individual (Group 1-3): 17.9 ng/g and 22.6 ng/g
10 mg/kg IP, 0.25 hr
  plasma concentration, individual (Group 1-3): 1.5 µg/mL and 1.18 µg/mL
10 mg/kg IP, 0.5 h
  Brain/plasma Ratio, individual (Group 1-3): 0.008 and 0.023 and 0.011
  brain calculated concentration, individual (Group 1-3): 29.1 ng/g and 18.7 ng/g
10 mg/kg IP, 0.5 hr
  plasma concentration, individual (Group 1-3): 2.62 µg/mL and 1.26 µg/mL and 1.74 µg/mL
10 mg/kg IP, 1 h
  brain calculated concentration, individual (Group 1-3): 16.5 ng/g and 14.9 ng/g
10 mg/kg IP, 1 hr
  plasma concentration, individual (Group 1-3): 1.27 µg/mL and 1.17 µg/mL
10 mg/kg IP, 2 h
  Brain/plasma Ratio, individual (Group 1-3): 0.016 and 0.022
  brain calculated concentration, individual (Group 1-3): 18.0 ng/g and 24.3 ng/g
10 mg/kg IP, 2 hr
  plasma concentration, individual (Group 1-3): 1.14 µg/mL and 1.08 µg/mL
10 mg/kg IP, 4 h
  Brain/plasma Ratio, individual (Group 1-3): 0.058 and 0.050 and 0.022
  brain calculated concentration, individual (Group 1-3): 10.4 ng/g and 12.8 ng/g
10 mg/kg IP, 4 hr
  plasma concentration, individual (Group 1-3): 0.163 µg/mL and 0.208 µg/mL and 0.585 µg/mL
IP administration
  brain concentration in brain compartment: 0.04 µM
  brain concentration, upper limit if restricted to extracellular space: ≤ 0.2 µM
male, C57BL/6, mouse, brain and plasma, ip, 10 mg/kg, 10 mg/kg IP, 1 h, read-out: Brain/plasma Ratio, Mean
  Kp at 1 h: 0.013
male, C57BL/6, mouse, brain and plasma, ip, 10 mg/kg, 10 mg/kg IP, 2 h, read-out: Brain/plasma Ratio, Mean
  Kp at 2 h: 0.018
male, C57BL/6, mouse, brain and plasma, ip, 10 mg/kg, 10 mg/kg IP, 2 h, read-out: Brain/plasma Ratio, individual (Group 1-3)
  Kp at 2 h: 0.015
male, C57BL/6, mouse, brain and plasma, ip, 10 mg/kg, 10 mg/kg IP, 4 h, read-out: Brain/plasma Ratio, Mean
  Kp at 4 h: 0.043
male, C57BL/6, mouse, brain, 10 mg/kg, 10 mg/kg IP, 0.25 h, read-out: brain calculated concentration, Mean
  concentration at 0.25 h: 17.5 ng/g
male, C57BL/6, mouse, brain, 10 mg/kg, 10 mg/kg IP, 0.25 h, read-out: brain calculated concentration, individual (Group 1-3)
  concentration at 0.25 h: 12 ng/g
male, C57BL/6, mouse, brain, 10 mg/kg, 10 mg/kg IP, 0.5 h, read-out: brain calculated concentration, Mean
  concentration at 0.5 h: 22.8 ng/g
male, C57BL/6, mouse, brain, 10 mg/kg, 10 mg/kg IP, 0.5 h, read-out: brain calculated concentration, individual (Group 1-3)
  concentration at 0.5 h: 20.6 ng/g
male, C57BL/6, mouse, brain, 10 mg/kg, 10 mg/kg IP, 1 h, read-out: brain calculated concentration, Mean
  concentration at 1 h: 14.6 ng/g
male, C57BL/6, mouse, brain, 10 mg/kg, 10 mg/kg IP, 1 h, read-out: brain calculated concentration, individual (Group 1-3)
  concentration at 1 h: 12.4 ng/g
male, C57BL/6, mouse, brain, 10 mg/kg, 10 mg/kg IP, 2 h, read-out: brain calculated concentration, Mean
  concentration at 2 h: 19.4 ng/g
male, C57BL/6, mouse, brain, 10 mg/kg, 10 mg/kg IP, 2 h, read-out: brain calculated concentration, individual (Group 1-3)
  concentration at 2 h: 15.9 ng/g
male, C57BL/6, mouse, brain, 10 mg/kg, 10 mg/kg IP, 4 h, read-out: brain calculated concentration, Mean
  concentration at 4 h: 10.9 ng/g
male, C57BL/6, mouse, brain, 10 mg/kg, 10 mg/kg IP, 4 h, read-out: brain calculated concentration, individual (Group 1-3)
  concentration at 4 h: 9.5 ng/g
male, C57BL/6, mouse, brain/plasma, ip, 10 mg/kg, 10 mg/kg IP, 0.25 h, read-out: Brain/plasma Ratio, Mean
  Kp at 0.25 h: 0.014
male, C57BL/6, mouse, brain/plasma, ip, 10 mg/kg, 10 mg/kg IP, 0.25 h, read-out: Brain/plasma Ratio, individual (Group 1-3)
  Kp at 0.25 h: 0.01
male, C57BL/6, mouse, brain/plasma, ip, 10 mg/kg, 10 mg/kg IP, 0.5 h, read-out: Brain/plasma Ratio, Mean
  Kp at 0.5 h: 0.014
male, C57BL/6, mouse, brain/plasma, ip, 10 mg/kg, 10 mg/kg IP, 1 h, read-out: Brain/plasma Ratio, individual (Group 1-3)
  Kp at 1 h: 0.015
male, C57BL/6, mouse, brain/plasma, ip, 10 mg/kg, 10 mg/kg IP, read-out: Ratio_AUCLAST (Brain/plasma)
  Kp: 0.02
[1]
  AUC: 0.064 µg·h/mL
[2]
  Tmax: 0.5 h
male, C57BL/6, mouse, brain, 10 mg/kg IP, read-out: t1/2 brain
  half-life: > 4 h
male, C57BL/6, mouse, plasma, 10 mg/kg, 10 mg/kg IP, 0.25 hr, read-out: plasma concentration, Mean
  concentration at 0.25 h: 1.31 µg/mL
male, C57BL/6, mouse, plasma, 10 mg/kg, 10 mg/kg IP, 0.25 hr, read-out: plasma concentration, individual (Group 1-3)
  concentration at 0.25 h: 1.25 µg/mL
male, C57BL/6, mouse, plasma, 10 mg/kg, 10 mg/kg IP, 0.5 hr, read-out: plasma concentration, Mean
  concentration at 0.5 h: 1.87 µg/mL
male, C57BL/6, mouse, plasma, 10 mg/kg, 10 mg/kg IP, 1 hr, read-out: plasma concentration, Mean
  concentration at 1 h: 1.15 µg/mL
male, C57BL/6, mouse, plasma, 10 mg/kg, 10 mg/kg IP, 1 hr, read-out: plasma concentration, individual (Group 1-3)
  concentration at 1 h: 1.02 µg/mL
male, C57BL/6, mouse, plasma, 10 mg/kg, 10 mg/kg IP, 2 hr, read-out: plasma concentration, Mean
  concentration at 2 h: 1.09 µg/mL
male, C57BL/6, mouse, plasma, 10 mg/kg, 10 mg/kg IP, 2 hr, read-out: plasma concentration, individual (Group 1-3)
  concentration at 2 h: 1.06 µg/mL
male, C57BL/6, mouse, plasma, 10 mg/kg, 10 mg/kg IP, 4 hr, read-out: plasma concentration, Mean
  concentration at 4 h: 0.319 µg/mL
[3]
  Cmax: 3.3 µM
  AUC(0-t): 3.85 µg·h/mL
male, C57BL/6, mouse, plasma, 10 mg/kg IP, read-out: AUCINF plasma
  AUC(0-inf): 4.55 µg·h/mL
[4]
  Tmax: 0.5 h
[5]
  half-life: 1.5 h
[6]
  Cmax: 1.87 µg/mL
